According to ChEMBL document CHEMBL3885881, “DrugMatrix”:

Species on record: Rattus norvegicus
Test: DrugMatrix - Regimen: Daily Repeat
Type: toxicity, organism-based, Sprague-Dawley
Set-up: regimen Daily Repeat, gender Male, age 6-8 weeks
Conditions: in vivo, po, route oral GAVAGE, […]; for ABSOLUTE BASOPHIL / BASOPHIL / NUCLEATED RED BLOOD CELLS / ABSOLUTE EOSINOPHIL / EOSINOPHIL / ERYTHROCYTE COUNT / HEMATOCRIT / HEMOGLOBIN / LEUKOCYTE COUNT / LYMPHOCYTE / MEAN CORPUSCULAR HEMOGLOBIN / MEAN CORPUSCULAR HEMOGLOBIN CONCENTRATION / MEAN CORPUSCULAR VOLUME / MONOCYTE / NEUTROPHIL / PLATELET COUNT / ABSOLUTE LYMPHOCYTE / ABSOLUTE MONOCYTE / ABSOLUTE SEGMENTED NEUTROPHIL: tissue Blood
[1] = 0 mg/kg, 72 h, dose level Control, time 3 day
[2] = 0 mg/kg, 120 h, dose level Control, time 5 day
[3] = 0 mg/kg, dose level Control, time 28 day
[4] = 0 mg/kg, tissue Plasma, dose level Control, time 28 day
[5] = 23 mg/kg, 72 h, dose level Low, time 3 day
[6] = 23 mg/kg, 72 h, tissue Plasma, dose level Low, time 3 day
[7] = 23 mg/kg, 120 h, dose level High, time 5 day
[8] = 23 mg/kg, 120 h, dose level Low, time 5 day
[9] = 23 mg/kg, 120 h, tissue Plasma, dose level High, time 5 day
[10] = 23 mg/kg, 120 h, tissue Plasma, dose level Low, time 5 day

CC1=C(CC(=O)O)c2cc(F)ccc2/C1=C\c1ccc([S+](C)[O-])cc1 (stereo not given)
ABSOLUTE BASOPHIL [1]: 0 CELLS/uL | BASOPHIL [1]: 0% | NUCLEATED RED BLOOD CELLS [1]: 0 /100WBC | ABSOLUTE BASOPHIL [2]: 0 CELLS/uL | ABSOLUTE EOSINOPHIL [2]: 0 CELLS/uL | BASOPHIL [3]: 0.42% | EOSINOPHIL [3]: 0.58% | ERYTHROCYTE COUNT [3]: 8.06 x10E6/uL | HEMATOCRIT [3]: 48.44% | HEMOGLOBIN [3]: 16.34 G/DL | LEUKOCYTE COUNT [3]: 13.04 x10E3/uL | LYMPHOCYTE [3]: 85.12% | MEAN CORPUSCULAR HEMOGLOBIN [3]: 20.26 pg | MEAN CORPUSCULAR HEMOGLOBIN CONCENTRATION [3]: 33.74 G/DL | MEAN CORPUSCULAR VOLUME [3]: 60.1 fL | MONOCYTE [3]: 1.44% | NEUTROPHIL [3]: 11.28% | PLATELET COUNT [3]: 1226 x10E3/uL | ALANINE AMINOTRANSFERASE [4]: 28.6 u/L | ALBUMIN [4]: 3.94 G/DL | ALKALINE PHOSPHATASE [4]: 254.6 u/L | ASPARTATE AMINOTRANSFERASE [4]: 67.8 u/L | BLOOD UREA NITROGEN [4]: 10.4 mg/dL | CHLORIDE [4]: 104.6 MEQ/L | CHOLESTEROL [4]: 57.6 mg/dL | CREATINE PHOSPHOKINASE [4]: 224.8 u/L | CREATININE [4]: 0.4 mg/dL | GLUCOSE [4]: 140.6 mg/dL | PHOSPHORUS [4]: 10.66 mg/dL | POTASSIUM [4]: 6.58 MEQ/L | SODIUM [4]: 148.6 MEQ/L | TOTAL BILIRUBIN [4]: 0.24 mg/dL | TOTAL PROTEIN [4]: 6.64 G/DL | ABSOLUTE BASOPHIL [5]: 0 CELLS/uL | ABSOLUTE EOSINOPHIL [5]: 0 CELLS/uL | ABSOLUTE LYMPHOCYTE [5]: 6660 CELLS/uL | ABSOLUTE MONOCYTE [5]: 202 CELLS/uL | ABSOLUTE SEGMENTED NEUTROPHIL [5]: 1671.33 CELLS/uL | BASOPHIL [5]: 0% | EOSINOPHIL [5]: 0% | ERYTHROCYTE COUNT [5]: 4.91 x10E6/uL | HEMATOCRIT [5]: 31.27% | HEMOGLOBIN [5]: 12.6 G/DL | LEUKOCYTE COUNT [5]: 8.53 x10E3/uL | LYMPHOCYTE [5]: 79.33% | MEAN CORPUSCULAR HEMOGLOBIN [5]: 25.63 pg | MEAN CORPUSCULAR HEMOGLOBIN CONCENTRATION [5]: 40.27 G/DL | MEAN CORPUSCULAR VOLUME [5]: 63.67 fL | MONOCYTE [5]: 2.33% | NEUTROPHIL [5]: 18.33% | NUCLEATED RED BLOOD CELLS [5]: 0 /100WBC | PLATELET COUNT [5]: 1080 x10E3/uL | ALANINE AMINOTRANSFERASE [6]: 65.67 u/L | ALBUMIN [6]: 3.97 G/DL | ALKALINE PHOSPHATASE [6]: 429 u/L | ASPARTATE AMINOTRANSFERASE [6]: 75.67 u/L | BLOOD UREA NITROGEN [6]: 14.33 mg/dL | CARBON DIOXIDE [6]: 38.33 mmol/L | CHLORIDE [6]: 99.33 MEQ/L | CHOLESTEROL [6]: 87 mg/dL | CREATINE PHOSPHOKINASE [6]: 223.33 u/L | CREATININE [6]: 0.18 mg/dL | GLUCOSE [6]: 181 mg/dL | LACTATE DEHYDROGENASE [6]: 60.67 u/L | LIPASE [6]: 16 u/L | PHOSPHORUS [6]: 9.23 mg/dL | POTASSIUM [6]: 4.45 MEQ/L | SODIUM [6]: 143.57 MEQ/L | TOTAL BILIRUBIN [6]: 0.13 mg/dL | TOTAL PROTEIN [6]: 5.8 G/DL | URIC ACID [6]: 0.47 mg/dL | BASOPHIL [7]: 0.28% | EOSINOPHIL [7]: 0.82% | ERYTHROCYTE COUNT [7]: 7.33 x10E6/uL | HEMATOCRIT [7]: 47.1% | HEMOGLOBIN [7]: 14.9 G/DL | LEUKOCYTE COUNT [7]: 7.35 x10E3/uL | LYMPHOCYTE [7]: 79.44% | MEAN CORPUSCULAR HEMOGLOBIN [7]: 20.4 pg | MEAN CORPUSCULAR HEMOGLOBIN CONCENTRATION [7]: 31.66 G/DL | MEAN CORPUSCULAR VOLUME [7]: 64.4 fL | MONOCYTE [7]: 1.92% | NEUTROPHIL [7]: 16.36% | PLATELET COUNT [7]: 1405.2 x10E3/uL | ABSOLUTE BASOPHIL [8]: 0 CELLS/uL | ABSOLUTE EOSINOPHIL [8]: 0 CELLS/uL | ABSOLUTE LYMPHOCYTE [8]: 5718.33 CELLS/uL | ABSOLUTE MONOCYTE [8]: 84 CELLS/uL | ABSOLUTE SEGMENTED NEUTROPHIL [8]: 664.33 CELLS/uL | BASOPHIL [8]: 0% | EOSINOPHIL [8]: 0% | ERYTHROCYTE COUNT [8]: 5.51 x10E6/uL | HEMATOCRIT [8]: 34.03% | HEMOGLOBIN [8]: 13.47 G/DL | LEUKOCYTE COUNT [8]: 6.47 x10E3/uL | LYMPHOCYTE [8]: 88.33% | MEAN CORPUSCULAR HEMOGLOBIN [8]: 24.47 pg | MEAN CORPUSCULAR HEMOGLOBIN CONCENTRATION [8]: 39.6 G/DL | MEAN CORPUSCULAR VOLUME [8]: 61.87 fL | MONOCYTE [8]: 1.33% | NEUTROPHIL [8]: 10.33% | NUCLEATED RED BLOOD CELLS [8]: 0.33 /100WBC | PLATELET COUNT [8]: 949.67 x10E3/uL | ALANINE AMINOTRANSFERASE [9]: 32.2 u/L | ALBUMIN [9]: 3.8 G/DL | ALKALINE PHOSPHATASE [9]: 308.4 u/L | ASPARTATE AMINOTRANSFERASE [9]: 75.4 u/L | BLOOD UREA NITROGEN [9]: 8.8 mg/dL | CHLORIDE [9]: 109 MEQ/L | CHOLESTEROL [9]: 63.8 mg/dL | CREATINE PHOSPHOKINASE [9]: 287.2 u/L | CREATININE [9]: 0.42 mg/dL | GLUCOSE [9]: 131.8 mg/dL | PHOSPHORUS [9]: 14.88 mg/dL | POTASSIUM [9]: 6.36 MEQ/L | SODIUM [9]: 151.6 MEQ/L | TOTAL BILIRUBIN [9]: 0.18 mg/dL | TOTAL PROTEIN [9]: 6.24 G/DL | ALANINE AMINOTRANSFERASE [10]: 67.33 u/L | ALBUMIN [10]: 4.17 G/DL
